Results published in paper PMC5654082 (Malaria Journal, 2017).
Counter-ions that a name gives are not always drawn.

Legend:
human OCT1 = target: T1, human OCT1 (Homo sapiens, UniProt O15245); assay: OCT1-mediated cellular import in transduced HEK293 cells (LC-MS/MS); assay type: cell-based
T1 construct: host or cells: HEK293, baculovirus transduction (CMV promoter), transient
T1 sequence (O15245 1-554): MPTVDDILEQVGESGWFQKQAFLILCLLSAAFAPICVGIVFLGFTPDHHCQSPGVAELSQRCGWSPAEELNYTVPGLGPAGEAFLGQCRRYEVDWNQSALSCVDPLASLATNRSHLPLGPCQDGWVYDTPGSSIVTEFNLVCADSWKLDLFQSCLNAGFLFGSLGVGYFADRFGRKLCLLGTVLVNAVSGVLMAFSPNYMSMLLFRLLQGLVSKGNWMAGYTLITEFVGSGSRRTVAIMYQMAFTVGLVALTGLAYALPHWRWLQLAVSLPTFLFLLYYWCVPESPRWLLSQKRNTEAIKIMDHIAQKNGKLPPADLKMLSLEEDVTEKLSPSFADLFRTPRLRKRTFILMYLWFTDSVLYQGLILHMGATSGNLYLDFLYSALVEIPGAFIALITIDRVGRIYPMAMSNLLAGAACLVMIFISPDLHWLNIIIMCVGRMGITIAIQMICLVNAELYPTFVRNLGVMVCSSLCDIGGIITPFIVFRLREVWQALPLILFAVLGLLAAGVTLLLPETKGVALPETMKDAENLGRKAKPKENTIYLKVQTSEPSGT
Protocol: HEK293 cells were modified to transiently express (a combination of) human OCT1, OCT2, MATE1, MATE2-K, or eYFP. Briefly, cDNA of the respective genes was cloned downstream of a CMV promoter into a baculovirus, of which passage three was used to transduce HEK293 cells. These cells were seeded in poly-D-lysine coated 24- or 96-wells plates and grown in a 37 °C incubator at 5% CO2. Growth was initiated at ~ 25% confluency using 375 or 125 μL cell and complete medium (DMEM + GlutaMAX™-I supplemented with 10% fetal bovine serum) suspension per well, respectively. After 24 h, cells were transduced with 30 µL virus (10 µL virus + 20 µL complete medium in case of 96-wells plates) or 2 × 15 µL virus for cells that required simultaneous expression of two transporters. Finally, 195 µL sodium butyrate (45 µL for 96-wells plates) was added to a final concentration of 2 mM to enhance protein expression.
HEK293 cells were seeded in 24-wells poly-D-lysine coated plates and transduced the subsequent day with OCT1 or OCT2 as described above. Three days following transduction, OCT1- or OCT2-mediated uptake of ten anti-malarials (AMO, ART, ATO, CQ, DHA, LUM, MQ, PQ, PG, and QN) was performed. NMQ served as a positive substrate for both OCT1 and OCT2 import. In short, cells were washed with 400 µL 37 °C HBSS-HEPES buffer followed by adding 150 µL HBSS buffer with 10 µM anti-malarial or NMQ to each well. After incubation for 15 min at 37 °C, import was stopped by washing with 400 µL ice-cold HBSS-HEPES buffer supplemented with 0.5% BSA. Following a second wash with 400 µL ice-cold HBSS-HEPES buffer, cells were lysed with 200 µL 50% (v/v) MeOH and 0.1% (v/v) formic acid (HCOOH) in water and samples were sent for quantification by mass spectrometry analysis (see “LC–MS/MS quantification of anti-malarials” section). […]
The affinity (KM) and maximum transport rate (Vmax) for OCT1 and OCT2 of PG were determined by analysing concentration-dependent uptake data from three independent experiments.
(§1) Import and export of PG and cycloguanil (CG) was assessed by single and double transduced HEK293 cells. […] Following the same procedure as for the cellular import assay described above, the import of 100 µM PG and CG was measured after 5 min incubation and data was plotted as mean pmol/mg/min ± SEM. […] Significant reduction in uptake (i.e. export by MATEs) was determined using ln transformation and a one-way repeated measures ANOVA with Dunnet’s post test.
Anti-malarial concentration in the cell lysates was quantified using an LC–MS/MS system consisting of a UPLC, a binary solvent manager, a vacuum degasser and an autosampler, coupled to a Xevo TQ-S micro triple quadrupole mass spectrometer. […]

MATE2-K = MATE2-K (Homo sapiens, UniProt Q86VL8); assay: MATE2-K-mediated uptake in transduced HEK293 cells; assay type: cell-based; set-up: host or cells: HEK293, baculovirus transduction (CMV promoter), transient; settings: 100 µM, 5 min
Sequence of MATE2-K (Q86VL8 1-566 isoform Q86VL8-3): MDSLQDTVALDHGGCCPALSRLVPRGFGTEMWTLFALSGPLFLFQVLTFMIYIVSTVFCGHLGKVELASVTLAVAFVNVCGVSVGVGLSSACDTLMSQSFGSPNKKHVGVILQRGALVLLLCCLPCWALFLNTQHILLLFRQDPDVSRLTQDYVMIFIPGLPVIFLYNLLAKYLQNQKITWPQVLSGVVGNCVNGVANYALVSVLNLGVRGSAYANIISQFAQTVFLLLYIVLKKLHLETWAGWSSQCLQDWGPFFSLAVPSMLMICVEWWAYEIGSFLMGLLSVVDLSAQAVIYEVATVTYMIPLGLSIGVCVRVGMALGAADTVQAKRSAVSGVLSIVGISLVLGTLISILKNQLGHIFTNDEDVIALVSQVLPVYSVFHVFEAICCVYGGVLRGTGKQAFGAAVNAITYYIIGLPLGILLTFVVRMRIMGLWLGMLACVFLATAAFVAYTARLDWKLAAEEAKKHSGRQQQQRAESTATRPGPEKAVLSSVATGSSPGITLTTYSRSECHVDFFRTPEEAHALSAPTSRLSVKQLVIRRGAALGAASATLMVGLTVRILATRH
Protocol: HEK293 cells were modified to transiently express (a combination of) human OCT1, OCT2, MATE1, MATE2-K, or eYFP. Briefly, cDNA of the respective genes was cloned downstream of a CMV promoter into a baculovirus, of which passage three was used to transduce HEK293 cells. These cells were seeded in poly-D-lysine coated 24- or 96-wells plates and grown in a 37 °C incubator at 5% CO2. Growth was initiated at ~ 25% confluency using 375 or 125 μL cell and complete medium (DMEM + GlutaMAX™-I supplemented with 10% fetal bovine serum) suspension per well, respectively. […]
as §1
Anti-malarial concentration in the cell lysates was quantified using an LC–MS/MS system consisting of a UPLC, a binary solvent manager, a vacuum degasser and an autosampler, coupled to a Xevo TQ-S micro triple quadrupole mass spectrometer. […] The peak area of the most abundant product ion was used for quantification.

Uptake by OCT1 (human OCT1; 100 µM, 5 min) [pmol/mg/min] | SMILES | Uptake by MATE2-K (MATE2-K) [pmol/mg/min] | Uptake by OCT1, percentage of mock-transduced control (human OCT1; 10 µM, 15 min, 37 °C) [%] | Uptake, percentage of eYFP control cells (human OCT1; cells co-transduced with eYFP and OCT1, 1 µM, 1 min, pH 7.4) [%]
139 ± 9 | CC1(C)N=C(N)N=C(N)N1c1ccc(Cl)cc1 [Cycloguanil] | 56 ± 15 |  | 
 | [H]/N=C(\N/C(=N/[H])Nc1ccc(Cl)cc1)NC(C)C [Proguanil, proguanil hydrochloride] | 360 ± 90 | 301 ± 25 | 850 ± 60
